Measurements taken from patent publication US20130165368A1, “ANTIMICROBIAL COMPOUNDS” (priority 2010, published 2013).
In brackets after ≈: the same amount, converted by molar mass. Like-named read-outs stand apart in the source and are kept apart here. One block for each compound: values may come before it.

Tests used:
Type in all cases: cell-based
Enterococcus faecium = test: MIC agar dilution, micro-organism 16 (7171); details: Enterococcus faecium 7171
Protocol: (§1) Throughout the period of testing the microbial strains were subcultured and incubated for 18-20 hours at 37° C. on a weekly basis. Horse blood agar plates were used to sustain the micro-organisms both prior to and throughout testing. The alkoxylated alkanols listed in Table II below were obtained (these are obtainable from Sigma-Aldrich Company Ltd, Dorset, England), each having a GC purity of at least 97%.
(§2) Molar equivalent concentrations were used to allow comparison between compounds of differing molecular mass. Due to weighing difficulties, any compound in solid form was melted in a water bath prior to dilution. To make ten-times strength concentrations, which takes into account agar dilution, 0.0352 mmol of each compound was weighed into plastic universal bottles and 4 mL of sterile distilled water (SDW) was added. To produce a homogenous emulsion the universals were vortexed; once achieved the emulsions were serial diluted by adding 2 mL to 2 mL of SDW.
(§3) Myristyl alcohol and lauryl alcohol were re-weighed and dissolved in 25 μL of the polar solvent 1-methyl-2-pyrrolidone (M6762; Sigma-Aldrich) in sterile glass universals due to an inability to achieve an even suspension. To maintain an even emulsion in the presence of SDW 37.5 μL of the non-ionic detergent Tween 20 (P1379, Sigma-Aldrich) was also added. 3.9375 mL of SDW was added to these, to create a 4 mL volume; they were vortexed and diluted as before.
(§4) For every 100 mL of Isosensitest agar (IST) (CM0471; Oxoid, Basingstoke, England), 3.1 g of the IST powder was added to 100 mL SDW (as per manufacturer's instructions) and sterilised for 15 minutes at 121° C. Once sterilised, the molten agar was cooled to 50° C. in a water-bath. Subsequently 4.8 g of CCEY powder (BC2160; Bioconnections, Wetherby, England), also known as Brazier's medium, was added to 100 mL SDW for every 100 mL of agar needed. This was then sterilised for 15 minutes at 121° C. Once sterilised the molten agar was cooled to 50° C. in a water-bath and 4 mL of egg-yolk emulsion (S2073; TCS Biosciences Ltd, Buckingham, United Kingdom) and 1 mL of lysed defibrinated horse blood (HB035; TCS Biosciences Ltd, Buckingham, United Kingdom) were also added for every 100 mL needed. Horse blood lysis is achieved by dilution to half concentration with SDW; when fully lysed the mixture will turn dark red in colour.
(§5) 18 mL agar was added to each universal and then poured into sterile Petri dishes. This step creates a 1/10 dilution resulting in agar plates of the required strength. Control plates for each set of strains were created by adding 18 mL of agar to 2 mL of SDW.
(§6) Suspensions of each bacterial species were prepared with a density equal to that of a 0.5 McFarland standard using a densitometer. All suspensions were made using sterile distilled water and fresh 18-20 hour cultures. As a 0.5 McFarland standard contains 1.5×10^8 CFU/mL and the multipoint inoculators applies 1 μL spots of liquid, each bacterial suspension was diluted 1/15 (20 μL suspension to 280 μL sterile distilled water).
(§7) Bacterial suspensions were prepared from fresh 18-24 hour cultures as previously described. 1 μL of each strain was inoculated onto all 100 agar plates containing a different chemical concentration and the 2 control plates. This was done using a multipoint inoculator which inoculates 20 strains per plate. All plates were incubated for 22 hours at 37° C. in aerobic conditions.
(§8) Each plate was examined for bacterial growth after 22 and 48 hours, with each being incubated in between examinations. A positive result was recorded as growth of ≧10 colonies. A negative result was recorded as growth of <10 colonies as this is equivalent to 99.9% inhibition. The lowest concentration of chemical that inhibited growth was recorded as the MIC. The results are recorded in Table IV below, where the numbers are quoted in mmol/L. […]

Listeria monocytogenes = test: MIC agar dilution, micro-organism 15 (11994); details: Listeria monocytogenes 11994
Protocol: as §1, §2, §3, §4, §5, §6, §7, §8

Candida glabrata = test: MIC agar dilution, micro-organism 20 (3943); details: Candida glabrata 3943
Protocol: as §1, §2, §3, §4, §5, §6, §7, §8

[1] = system: Staphylococcus aureus (MRSA); test: MIC agar dilution, micro-organism 12 (11939); details: Staphylococcus aureus (MRSA) 11939
Protocol: as §1, §2, §3, §4, §5, §6, §7, §8

Candida albicans = test: MIC agar dilution, micro-organism 19 (90028); details: Candida albicans 90028
Protocol: as §1, §2, §3, §4, §5, §6, §7, §8

Enterococcus faecalis = test: MIC agar dilution, micro-organism 17 (775); details: Enterococcus faecalis 775
Protocol: as §1, §2, §3, §4, §5, §6, §7, §8

Providencia rettgeri = test: MIC agar dilution, micro-organism 3 (7475); details: Providencia rettgeri 7475
Protocol: as §1, §2, §3, §4, §5, §6, §7, §8

Staphylococcus aureus = test: MIC agar dilution, micro-organism 13 (6571); details: Staphylococcus aureus 6571
Protocol: as §1, §2, §3, §4, §5, §6, §7, §8

Steptococcus pyogenes = test: MIC agar dilution, micro-organism 11 (8306); details: Steptococcus pyogenes 8306
Protocol: as §1, §2, §3, §4, §5, §6, §7, §8

Escherichia coli = test: MIC agar dilution, micro-organism 1 (10418); details: Escherichia coli 10418
Protocol: as §1, §2, §3, §4, §5, §6, §7, §8

[2] = system: Staphylococcus epidermidis; test: MIC agar dilution, micro-organism 14 (11047); details: Staphylococcus epidermidis 11047
Protocol: as §1, §2, §3, §4, §5, §6, §7, §8

Bacillus subtilis = test: MIC agar dilution, micro-organism 18 (9372); details: Bacillus subtilis 9372
Protocol: as §1, §2, §3, §4, §5, §6, §7, §8

[3] = system: Gram negative bacteria, Gram positive bacteria and pathogenic yeasts; test: MIC agar dilution, summary statements over the micro-organisms tested (Tables I, IX); details: over the micro-organisms tested or some of them; read-out: MIC
Excerpt: For a better understanding, the present invention will now be more particularly described, by way of non-limiting example only, as follows. The micro-organisms shown in Table I overleaf were acquired from the National Collection of Type Cultures (NCTC), Colindale, United Kingdom; the American Type Culture Collection (ATCC), Manassas, United States and the National Collection of Pathogenic Fungi (NCPF), Colindale, United Kingdom. They include Gram negative bacteria, Gram positive bacteria and pathogenic yeasts.
as §1, §2, §3, §4, §5, §6
as §7, with “conditions. […]” for “conditions.”

[4] = Nakaseomyces glabratus, 22 h, 22 hrs, read-out: MIC
[5] = Nakaseomyces glabratus, 48 h, 48 hrs, read-out: MIC
[6] = Staphylococcus aureus, MRSA, 22 h, 22 hrs, read-out: MIC
[7] = Staphylococcus aureus, MRSA, 48 h, 48 hrs, read-out: MIC
[8] = Staphylococcus aureus, 22 h, 22 hrs, read-out: MIC
[9] = Staphylococcus aureus, 48 h, 48 hrs, read-out: MIC

MIC (Enterococcus faecium; 22 hrs): >880 µM
MIC (Enterococcus faecium; 48 hrs): >880 µM
MIC (Listeria monocytogenes; 22 hrs): >880 µM
MIC (Listeria monocytogenes; 48 hrs): >880 µM
MIC (Candida glabrata; 22 hrs): 880 µM (≈ 291 µg/mL)
MIC (Candida glabrata; 48 hrs): >880 µM
MIC ([1]; 22 hrs): >880 µM
MIC ([1]; 48 hrs): >880 µM
MIC (Candida albicans; 22 hrs): >880 µM
MIC (Candida albicans; 48 hrs): >880 µM
MIC (Enterococcus faecalis; 22 hrs): >880 µM
MIC (Enterococcus faecalis; 48 hrs): >880 µM
MIC (Providencia rettgeri; 22 hrs): >880 µM
MIC (Providencia rettgeri; 48 hrs): >880 µM
MIC (Staphylococcus aureus; 22 hrs): >880 µM
MIC (Staphylococcus aureus; 48 hrs): >880 µM
MIC (Steptococcus pyogenes; 22 hrs): 880 µM (≈ 291 µg/mL)
MIC (Steptococcus pyogenes; 48 hrs): >880 µM
MIC (Escherichia coli; 22 hrs): >880 µM
MIC (Escherichia coli; 48 hrs): >880 µM
MIC ([2]; 22 hrs): >880 µM
MIC ([2]; 48 hrs): >880 µM
MIC (Bacillus subtilis; 22 hrs): >880 µM
MIC (Bacillus subtilis; 48 hrs): >880 µM
Compound: CCCCCCCCCCCCCCCCOCCOCCO [C2]

Compound: CCCCCCCCCCO [D0, 1-Decanol, reference compound]
MIC (Enterococcus faecium; 22 hrs, read-out: MIC): > 880 µM
MIC (Enterococcus faecium; 48 hrs, read-out: MIC): > 880 µM
MIC (Listeria monocytogenes; 22 hrs, read-out: MIC): > 880 µM
MIC (Listeria monocytogenes; 48 hrs, read-out: MIC): > 880 µM
MIC (Candida glabrata; [4]): > 880 µM
MIC (Candida glabrata; [5]): > 880 µM
MIC [1, 6]: > 880 µM
MIC [1, 7]: > 880 µM
MIC (Candida albicans; 22 hrs, read-out: MIC): > 880 µM
MIC (Candida albicans; 48 hrs, read-out: MIC): > 880 µM
MIC (Enterococcus faecalis; 22 hrs, read-out: MIC): > 880 µM
MIC (Enterococcus faecalis; 48 hrs, read-out: MIC): > 880 µM
MIC (Providencia rettgeri; 22 hrs, read-out: MIC): > 880 µM
MIC (Providencia rettgeri; 48 hrs, read-out: MIC): > 880 µM
MIC [3]: > 880 µM
MIC (Staphylococcus aureus; [8]): > 880 µM
MIC (Staphylococcus aureus; [9]): > 880 µM
MIC (Steptococcus pyogenes; 22 h, 22 hrs, read-out: MIC): > 880 µM
MIC (Steptococcus pyogenes; 48 h, 48 hrs, read-out: MIC): > 880 µM
MIC (Escherichia coli; 22 hrs, read-out: MIC): > 880 µM
MIC (Escherichia coli; 48 hrs, read-out: MIC): > 880 µM
MIC ([2]; 22 hrs, read-out: MIC): > 880 µM
MIC ([2]; 48 hrs, read-out: MIC): > 880 µM
MIC (Bacillus subtilis; 22 hrs, read-out: MIC): > 880 µM
MIC (Bacillus subtilis; 48 hrs, read-out: MIC): > 880 µM

MIC (Enterococcus faecium; 22 hrs, read-out: MIC): > 880 µM
MIC (Enterococcus faecium; 48 hrs, read-out: MIC): > 880 µM
MIC (Listeria monocytogenes; 22 hrs, read-out: MIC): > 880 µM
MIC (Listeria monocytogenes; 48 hrs, read-out: MIC): > 880 µM
MIC (Candida glabrata; [4]): 440 µM (≈ 82 µg/mL)
MIC (Candida glabrata; [5]): ≥ 880 µM
MIC [1, 6]: 440 µM (≈ 82 µg/mL)
MIC [1, 7]: ≥ 880 µM
MIC (Candida albicans; 22 hrs, read-out: MIC): > 880 µM
MIC (Candida albicans; 48 hrs, read-out: MIC): > 880 µM
MIC (Enterococcus faecalis; 22 hrs, read-out: MIC): > 880 µM
MIC (Enterococcus faecalis; 48 hrs, read-out: MIC): > 880 µM
MIC (Providencia rettgeri; 22 hrs, read-out: MIC): > 880 µM
MIC (Providencia rettgeri; 48 hrs, read-out: MIC): > 880 µM
MIC (Staphylococcus aureus; [8]): 440 µM (≈ 82 µg/mL)
MIC (Staphylococcus aureus; [9]): ≥ 880 µM
MIC (Steptococcus pyogenes; 22 h, 22 hrs, read-out: MIC): 440 µM (≈ 82 µg/mL)
MIC (Steptococcus pyogenes; 48 h, 48 hrs, read-out: MIC): ≥ 880 µM
MIC (Escherichia coli; 22 hrs, read-out: MIC): > 880 µM
MIC (Escherichia coli; 48 hrs, read-out: MIC): > 880 µM
MIC ([2]; 22 hrs, read-out: MIC): > 880 µM
MIC ([2]; 48 hrs, read-out: MIC): > 880 µM
MIC (Bacillus subtilis; 22 hrs, read-out: MIC): > 880 µM
MIC (Bacillus subtilis; 48 hrs, read-out: MIC): > 880 µM
Compound: CCCCCCCCCCCCO [L0, 1-Dodecanol, reference compound]
